Data on 4 molecules can be found in ChEMBL document CHEMBL1201862, “PubChem BioAssay data set” (2004).

The term EC50 denotes the concentration that produces a half-maximal response.

Calls of active or inactive are those of the source.

One assay deals with BJ. Put plainly: cytotoxicity toward Ras-transformed BJeLR fibroblasts, dose response, cell-based, alamar blue fluorescence, cherrypicked samples (AID 2631).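 Note: confirmatory dose-response assay in RAS-dependent BJ fibroblasts engineered with TERT, LT and ST, with cytotoxicity read by fluorescence.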 The note with it: Homo sapiens. Type of assay: functional.
Assay [1] can be described thus: growth suppression of PTEN-null colon cells, dose response, cell-based, HCT116 PTEN knockout (AID 1047).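 Note: HCT116 colon tumor cells with PTEN knocked out; cells exposed to compound for 60 hours before readout; potency for loss of cell viability measured by luminescence.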 Type of assay: functional.
For assay [2], the target named is T1, Nuclear receptor subfamily 0 group B member 1 (Homo sapiens, UniProt P51843).
T1 sequence (P51843 whole entry): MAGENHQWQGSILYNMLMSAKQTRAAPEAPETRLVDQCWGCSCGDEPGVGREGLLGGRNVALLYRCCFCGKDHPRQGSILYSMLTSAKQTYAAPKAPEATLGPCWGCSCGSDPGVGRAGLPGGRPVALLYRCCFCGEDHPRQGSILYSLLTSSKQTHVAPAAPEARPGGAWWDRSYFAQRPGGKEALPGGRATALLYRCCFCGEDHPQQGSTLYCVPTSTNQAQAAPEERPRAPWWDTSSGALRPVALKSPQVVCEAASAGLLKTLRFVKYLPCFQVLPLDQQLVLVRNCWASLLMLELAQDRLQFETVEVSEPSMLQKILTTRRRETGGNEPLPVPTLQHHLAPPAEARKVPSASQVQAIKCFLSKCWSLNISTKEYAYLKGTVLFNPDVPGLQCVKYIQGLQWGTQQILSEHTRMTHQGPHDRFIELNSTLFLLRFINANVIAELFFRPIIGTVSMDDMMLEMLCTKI
Put plainly: Luminescence-based cell-based high throughput dose response assay for inhibitors of the orphan nuclear receptor subfamily 0, group B, member 1 (DAX1; NR0B1). [Related pubchem assays (depositor defined):AID504766, AID504790]. Type of assay: functional.

Assay [3] concerns the target T2, Oxysterols receptor LXR-beta (Homo sapiens, UniProt P55055).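 Note: Cell-based luminescence dose-response assay of agonist activity at LXR, run as a confirmatory counterscreen to a daf-12 agonist screen; HEK293 cells with Gal4-LXR fusion and GAL4-driven luciferase reporter; agonist potency from rising luciferase signal of a Gal4-LXR reporter.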
T2 sequence (P55055 whole entry): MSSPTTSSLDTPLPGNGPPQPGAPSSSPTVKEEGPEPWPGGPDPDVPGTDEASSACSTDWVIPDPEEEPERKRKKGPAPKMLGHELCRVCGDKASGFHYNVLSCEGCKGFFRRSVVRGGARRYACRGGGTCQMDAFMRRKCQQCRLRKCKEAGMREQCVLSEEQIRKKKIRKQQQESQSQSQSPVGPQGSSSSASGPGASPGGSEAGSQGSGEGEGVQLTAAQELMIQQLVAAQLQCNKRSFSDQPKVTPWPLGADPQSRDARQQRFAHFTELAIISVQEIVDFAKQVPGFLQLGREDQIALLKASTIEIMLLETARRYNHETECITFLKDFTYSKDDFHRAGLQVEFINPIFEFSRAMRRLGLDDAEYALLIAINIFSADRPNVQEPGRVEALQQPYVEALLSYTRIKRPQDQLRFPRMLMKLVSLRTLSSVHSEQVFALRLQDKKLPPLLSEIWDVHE
Type of assay: functional, cell-based.

In the next assay the target is Nonstructural protein 1 (Influenza A virus, UniProt Q194T2). Type of assay: functional, Influenza A virus (A/California/07/2009(H1N1)).
Sequence of Nonstructural protein 1 (Q194T2 whole entry): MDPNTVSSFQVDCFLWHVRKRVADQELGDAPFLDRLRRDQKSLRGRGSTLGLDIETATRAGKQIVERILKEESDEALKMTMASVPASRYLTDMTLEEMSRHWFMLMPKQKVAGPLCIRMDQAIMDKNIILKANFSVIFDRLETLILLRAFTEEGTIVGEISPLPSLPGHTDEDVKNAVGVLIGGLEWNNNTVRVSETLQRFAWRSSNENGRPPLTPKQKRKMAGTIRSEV
Assay [4] deals with Polyadenylate-binding protein 1 (Homo sapiens, UniProt P11940). Put plainly: PABP1 MLLE–PAM2 interaction inhibitors, dose response, miRNA deadenylation inhibitor project, biochemical, fluorescence polarization, Cy5-PAM2 peptide, secondary (AID 602260). Type of assay: functional. The settings on record: read-out: IC50_Mean. For orientation: In fluorescence polarisation assays a small probe gives low polarisation when free and higher when bound to something large.
Sequence of Polyadenylate-binding protein 1 (P11940 whole entry): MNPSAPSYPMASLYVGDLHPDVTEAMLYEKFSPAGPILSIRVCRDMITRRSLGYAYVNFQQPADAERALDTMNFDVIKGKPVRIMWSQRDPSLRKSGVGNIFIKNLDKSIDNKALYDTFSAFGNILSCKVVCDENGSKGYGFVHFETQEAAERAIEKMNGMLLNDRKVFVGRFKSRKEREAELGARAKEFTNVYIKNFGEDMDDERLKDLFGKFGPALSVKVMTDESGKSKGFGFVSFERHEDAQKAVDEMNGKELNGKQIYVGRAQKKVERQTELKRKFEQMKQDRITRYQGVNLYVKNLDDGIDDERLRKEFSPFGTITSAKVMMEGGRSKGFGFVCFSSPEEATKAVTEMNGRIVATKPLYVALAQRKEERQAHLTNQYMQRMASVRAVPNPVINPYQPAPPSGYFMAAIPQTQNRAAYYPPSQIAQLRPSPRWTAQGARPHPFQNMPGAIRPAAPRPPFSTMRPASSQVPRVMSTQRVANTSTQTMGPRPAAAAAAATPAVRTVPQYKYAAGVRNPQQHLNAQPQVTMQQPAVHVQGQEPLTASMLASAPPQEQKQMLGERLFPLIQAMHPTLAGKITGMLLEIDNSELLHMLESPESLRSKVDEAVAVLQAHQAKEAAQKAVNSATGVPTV

The next assay concerns the target T3, Hexokinase HKDC1 (Homo sapiens, UniProt Q2TB90).
T3 sequence (Q2TB90 whole entry): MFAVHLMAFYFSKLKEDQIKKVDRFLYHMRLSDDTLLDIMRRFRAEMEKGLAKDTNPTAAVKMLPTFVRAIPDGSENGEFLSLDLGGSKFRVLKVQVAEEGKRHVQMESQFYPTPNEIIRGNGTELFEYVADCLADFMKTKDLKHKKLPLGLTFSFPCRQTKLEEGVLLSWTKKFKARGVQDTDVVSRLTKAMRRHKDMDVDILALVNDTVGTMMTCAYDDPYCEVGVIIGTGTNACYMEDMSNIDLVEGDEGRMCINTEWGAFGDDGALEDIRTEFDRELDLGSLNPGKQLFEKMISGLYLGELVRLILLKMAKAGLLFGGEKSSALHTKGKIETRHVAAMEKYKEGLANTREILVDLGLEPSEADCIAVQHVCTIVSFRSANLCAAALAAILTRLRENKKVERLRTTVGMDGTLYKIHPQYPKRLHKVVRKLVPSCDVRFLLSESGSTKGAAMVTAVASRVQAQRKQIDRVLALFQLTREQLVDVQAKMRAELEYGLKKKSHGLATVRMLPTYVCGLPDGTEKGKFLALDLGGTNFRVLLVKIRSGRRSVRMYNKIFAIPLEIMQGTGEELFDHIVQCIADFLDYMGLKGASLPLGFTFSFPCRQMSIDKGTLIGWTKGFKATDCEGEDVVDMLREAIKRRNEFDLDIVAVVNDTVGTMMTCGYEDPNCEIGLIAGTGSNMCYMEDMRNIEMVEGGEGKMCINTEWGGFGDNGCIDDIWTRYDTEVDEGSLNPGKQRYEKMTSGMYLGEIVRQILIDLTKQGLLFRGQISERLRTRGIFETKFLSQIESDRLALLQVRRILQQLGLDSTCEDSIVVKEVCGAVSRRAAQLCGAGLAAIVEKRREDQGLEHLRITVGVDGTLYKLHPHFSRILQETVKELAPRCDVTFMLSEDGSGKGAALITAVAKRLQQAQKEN
Put plainly: HKDC1 hexokinase inhibitors, dose response, biochemical, W721R variant (AID 504729). Type of assay: functional.

In assay [5] the target is T4, Zinc finger protein mex-5 (Caenorhabditis elegans, UniProt Q9XUB2).
T4 sequence (Q9XUB2 whole entry): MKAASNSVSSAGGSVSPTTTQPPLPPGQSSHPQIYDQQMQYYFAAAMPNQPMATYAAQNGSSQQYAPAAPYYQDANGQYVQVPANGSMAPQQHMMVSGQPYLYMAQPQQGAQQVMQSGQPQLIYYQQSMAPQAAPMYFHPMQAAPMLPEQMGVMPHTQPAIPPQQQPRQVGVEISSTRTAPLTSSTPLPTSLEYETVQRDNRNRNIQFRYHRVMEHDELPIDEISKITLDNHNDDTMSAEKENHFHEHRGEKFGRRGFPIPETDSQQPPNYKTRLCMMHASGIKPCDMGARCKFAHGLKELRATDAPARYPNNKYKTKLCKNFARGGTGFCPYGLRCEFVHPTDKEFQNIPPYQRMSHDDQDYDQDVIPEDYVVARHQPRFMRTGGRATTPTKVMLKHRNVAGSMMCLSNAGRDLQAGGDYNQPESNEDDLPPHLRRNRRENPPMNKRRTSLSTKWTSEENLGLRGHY
In words: MEX-5/TCR-2 RNA interaction inhibitors, dose response, biochemical, C. elegans, fluorescence polarization (AID 1960).

Consider `Cc1nn(-c2ccccc2)c(Cl)c1CN(C(=O)CCl)c1ccc(Cl)cc1`, for which the EC50 is 0.515 µM (active) in the assay with BJ and 4.07 µM (active) in assay [1].

In the case of `Oc1ccccc1/C=C/c1noc(-c2ccccc2O)n1`, the IC50 in assay [2] is > 67.5 µM (inactive). Besides, the EC50 in assay [3] is > 67.6 µM (inactive).

In the case of `Cc1cccc(N=Nc2ccc(N(C)C)cc2)c1`, the IC50 on Nonstructural protein 1 was 31.6 µM (active).

Take `O=C(O)CSc1cc(NS(=O)(=O)c2ccc(Cl)cc2)c2ccccc2c1O`: the IC50 in assay [4] is > 66 µM (inactive); on Hexokinase HKDC1, 4.67 µM (active). Also, the concentration giving a half-maximal response (EC50) in assay [5] was 6.3 µM (active).
